Measurements reported in US20040235163A1, “Myocardial cell apoptosis inhibitors” (priority 2001, published 2004).

Assays:
[1] = tested on: cardiac myocytes; assay: Apoptosis in cardiac myocytes measured as in Examples 1 and 2, modulators of the nicorandil effect; type: cell-based, rat
Procedure: Flow cytometry analysis was performed using a Coulter EPICSXL and a software package specific for this purpose. After collection of floating cardiac myocytes from the cell culture (1×10^6 cells/well), adhered cardiac myocytes were trypsinated and collected in the same tube. After centrifugation, the pellet was washed with PBS, supplemented with 70% EtOH, and then allowed to stand at room temperature for 20 minutes or more to fix the cells. After fixation, the cells were washed with PBS, re-suspended in 1 ml PBS and then reacted with 50 μL RNase (1 mg/ml, Sigma) at 37° C. for 40 minutes. After the cells were allowed to stand at room temperature (if necessary), they were washed with PBS and suspended in about 250 μL PBS to prepare a cell suspension. Propidium iodide (250 μL, 25 μg/ml, Sigma) was added to and suspended well in the cell suspension, which was then allowed to stand at room temperature for 20 minutes or more and analyzed by flow cytometry. Cells showing a Sub-G1 peak in nuclear staining with propidium iodide were counted as apoptotic cells to calculate the percentage of cells showing a Sub-G1 peak relative to the total cell count measured (1×10^4 cells). The calculated percentage was defined as the percentage of apoptotic cells.
H2O2 (Sigma) was added at a final concentration of 1×10^−4 M to the cell culture of cardiac myocytes prepared as described above (final density: 1×10^6 cells/2 ml/well), followed by culturing for 16 hours in a CO2 incubator. The cells were collected and analyzed by flow cytometory to determine the percentage of apoptotic cells. Nicorandil was also added at a final concentration of 1×10^−4 M immediately before H2O2 addition. […]
(§1) Calcium ionophore A23187 (Sigma) was added at a final concentration of 5×10^−6 M to the cell culture of cardiac myocytes prepared as described in Example 1. The cells were cultured as described in Example 1 and analyzed to determine the percentage of apoptotic cells. […]
Apoptosis in cardiac myocytes was measured as described in Examples 1 and 2.

[2] = tested on: neonatal rat ventricular myocytes (NRVMs); assay: Calcium ionophore A23187-induced apoptosis in cultured cardiac myocytes, flow cytometry; type: cell-based
Procedure: Cultured neonatal rat ventricular myocytes (NRVMs) were provided as cardiac myocytes used in the experiments. More specifically, hearts were extracted from 0- to 1-day-old neonatal rats (Wister, pregnant rats were purchased from Chubu Shizai). The ventricles of each heart were then treated with collagenase Type 2 (Worthington) and pancreatin (Sigma) to enzymatically isolate cardiac myocytes (collagenase 0.5 mg/ml, pancreatin 0.6 mg/ml, 4 treatments), followed by primary culture. After the enzymatically collected cells were seeded in plates and allowed to stand for 30 minutes, non-adhesive cells were collected to remove fibroblasts. The resulting cardiac myocytes were seeded at a density of 1×10^5 cells/cm^2 on 6-well plates or 75 cm^2 flasks pre-coated with 1% gelatin and then cultured at 37° C. under 5% CO2 for 48 hours in a medium consisting of DMEM/Medium 199 (4:1), 10% fetal bovine serum (FBS, Sigma), 0.1 mM bromodeoxyuridine (BrdU, Roche), penicillin (50 units/ml, GIBCO) and streptomycin (50 μg/ml, GIBCO). Culturing was carried out in a CO2 incubator under conditions of 37° C. The medium was then replaced with a serum-free medium which had been prepared from the same ingredients other than FBS and supplemented with insulin-transferrin-selenium (ITS, GIBCO). These cells were provided for experiments 24 hours after replacement with the serum-free medium. After immunocytostaining with a cardiac myocytespecific antibody (α-actinin antibody), the percentage of cardiac myocytes was measured by microscopy to confirm that 90% or more of the cells were cardiac myocytes at that stage.
Flow cytometry analysis was performed using a Coulter EPICSXL and a software package specific for this purpose. After collection of floating cardiac myocytes from the cell culture (1×10^6 cells/well), adhered cardiac myocytes were trypsinated and collected in the same tube. […] Propidium iodide (250 μL, 25 μg/ml, Sigma) was added to and suspended well in the cell suspension, which was then allowed to stand at room temperature for 20 minutes or more and analyzed by flow cytometry. Cells showing a Sub-G1 peak in nuclear staining with propidium iodide were counted as apoptotic cells to calculate the percentage of cells showing a Sub-G1 peak relative to the total cell count measured (1×10^4 cells). The calculated percentage was defined as the percentage of apoptotic cells.
as §1

[3] = tested on: neonatal rat ventricular myocytes (NRVMs); assay: H2O2-induced apoptosis in cultured cardiac myocytes, flow cytometry (Sub-G1 peak); type: cell-based
[4] = tested on: Bad protein (phospho-Bad Ser-136); assay: Western blot analysis of Bad phosphorylation in apoptotic cardiac myocytes; type: cell-based, rat; conditions: pre-treatment with nicorandil, apoptotic cells induced by H2O2 or A23187
Procedure: Both floating and adhered cardiac myocytes were collected and lysed at 4° C. for 1 hour in a lysis buffer consisting of 20 mM Tris-HCl (pH 7.5), 2 mM EDTA, 3 mM EGTA, 2 mM DTT, 250 mM sucrose, 1% Triton X-100, 10 μg/ml aprotinin, 10 μM leupeptin and 0.1 mM PMSF. The resulting cell lysate was measured for its protein level by the Bradford method, solubilized in 2× sample buffer and then boiled at 95° C. for 3 minutes. After each lane was loaded with 50 μg sample and electrophoresed on a 12.5% SDS-polyacrylamide gel, the gel was transferred to a PVDF membrane. The blots were blocked overnight in 3% BSA/0.1% Tween-20 in PBS and then detected with the following primary antibodies: rabbit polyclonal Bcl-2 antibody (Pharmingen), rabbit polyclonal Bax antibody (Pharmingen), mouse monoclonal p53 antibody (Calbiochem), mouse monoclonal poly(ADP-ribose) polymerase (PARP) antibody (Clontech) and rabbit polyclonal CPP32 antibody (Santa Cruz). […]
Both floating and adhered cardiac myocytes were collected from 75 cm^2 flasks and lysed in 0.5 mL lysis buffer consisting of 10 mM Tris-HCl (pH 7.4), 1 mM EDTA, 1 mM EGTA (pH 8.0), 150 mM NaCl, 1% Triton X-100, 0.2 mM sodium ortho-vanadate, 0.2 mM PMSF and 0.5% NP-40. […] The total Bad content was determined by probing with a rabbit polyclonal Bad antibody (New England Biolabs). […]

[5] = tested on: Neonatal rat cardiac myocytes; assay: JC-1 mitochondrial membrane potential, confocal microscopy, H2O2 stimulation; type: cell-based; conditions: pre-treatment with nicorandil 100 μmol/L; H2O2 200 μmol/L, 20 min
From the text: A fluorescent probe JC-1, a detection reagent for mitochondrial membrane potential, was used to confirm that nicorandil inhibited apoptosis in cardiac myocytes stimulated by H2O2. In most cases of cellular apoptosis, cytochrome C is translocated from mitochondrial membrane to cytosol, during which loss of mitochondrial membrane potential is known. Since JC-1 is a cationic fluorescent substance, it easily enters cells and emits red fluorescence (λem=590 nm) in normal cell mitochondria through formation of polymers called J-aggregates. […] Neonatal rat cardiac myocytes were seeded at a density of 1×10^6 cells/well in 35 mm dishes with glass bottoms (IWAKI) and cultured at 37° C. for 10 minutes in serum-free DMEM/F12 medium containing 10 μg/mL JC-1 (Wako Pure Chemical Industries, Ltd.). The cells on the dishes were observed using a confocal laser scanning microscope and a 20× objective lens. Fluorescence was excited by the 488 nm line of an argon laser and the 543 nm line of a helium-neon laser.

[6] = tested on: animal models of ischemic reperfusion; conditions: cited from earlier work

nitroprusside
effect on the anti-apoptotic effect of nicorandil ([1]; nitroprusside final concentration 10^−4 M): enhanced

ZVAD
block of the pro-apoptosis effect of A23187 ([2]; ZVAD 1×10^−5 M, A23187 5×10^−6 M): around 50%

COc1ccc2c(c[n+](C)c3c4cc5c(cc4ccc23)OCO5)c1OC [chelerythrine]
effect on the anti-apoptotic effect of nicorandil ([1]; chelerythrine final concentration 10^−6 M): completely disappeared

OO [H2O2, hydrogen peroxide]
percentage of apoptotic cells ([3]; 1×10^−4 M H2O2, 16 hours, 10% or less in the absence of H2O2): more than 70%

COc1ccc(Cl)cc1C(=O)NCCc1ccc(S(=O)(=O)NC(=O)NC2CCCCC2)cc1 [glibenclamide]
effect on the anti-apoptotic effect of nicorandil (H2O2-induced apoptosis) ([3]; glibenclamide 1×10^−5 M + nicorandil + H2O2 1×10^−4 M): completely blocked

O=C(NCCO[N+](=O)[O-])c1cccnc1 [nicorandil, N-(2-hydroxyethyl)nicotinamide nitrate ester]
inhibition of H2O2-induced apoptosis ([3]; 1×10^−4 M nicorandil added immediately before 1×10^−4 M H2O2, 16 hours): significantly inhibited to the control level | inhibition at 100 µM ([3]; Rattus norvegicus, Ventricular myocyte, pre-treatment with nicorandil 10^−4 M, read-out: inhibition of NRVM apoptosis induced by H2O2): 60% | inhibition at 100 µM ([2]; Rattus norvegicus, Ventricular myocyte, nicorandil 1×10^−4 M, A23187 5×10^−6 M, read-out: block / inhibition of apoptosis induced by calcium ionophore A23187): ~50% | phosphorylation level of Bad [4]: increase the phosphorylation level of Bad | JC-1 green fluorescence (loss of mitochondrial membrane potential) upon H2O2 stimulation [5]: inhibit such green fluorescence | infarct size [6]: decrease infarct size

COC(=O)[C@@H](N)CCCNC(=N)N[N+](=O)[O-] [L-NAME, N^G-nitro L-arginine methyl ester]
effect on the anti-apoptotic effect of nicorandil ([1]; L-NAME final concentration 10^−6 M): partially blocked

CNc1ccc2oc(C[C@H]3O[C@@]4(CC[C@H]3C)O[C@H]([C@H](C)C(=O)c3ccc[nH]3)[C@H](C)C[C@H]4C)nc2c1C(=O)O [A23187]
induction of apoptosis ([2]; A23187 5×10^−6 M): induced apoptosis significantly

CCCCCC(O)CCCC(=O)O (stereo not drawn) [5-hydroxydecanoate]
effect on the anti-apoptotic effect of nicorandil (H2O2-induced apoptosis) ([3]; 5-hydroxydecanoate 5×10^−4 M + nicorandil 1×10^−4 M + H2O2 1×10^−4 M): partially blocked | effect on the anti-apoptotic effect of nicorandil (A23187-induced apoptosis) ([2]; 5-hydroxydecanoate 5×10^−4 M + nicorandil 1×10^−4 M + A23187 5×10^−6 M): completely blocked
